Reference: ChEMBL document CHEMBL3244242, “3-Benzazocine amidinium nitronates. An unusual type of opiate antagonist” (J Med Chem, 1978)
Activity calls are given as the source filed them. The calls are words filed in the database; no cut-off is given here.

Columns and labels:
Mus musculus [1] = experiment: Inhibition of morphine sulfate-induced analgesic activity in Swiss albino mouse at 20 mg/kg administered intramuscularly measured 30 mins post morphine sulfate challenge by mouse tail-flick test; format: functional, organism-based; set-up: dose 20 mg/kg
[2] = Solubility of the compound in water; format: physicochemical; details: buffer
Mus musculus [3] = experiment: Analgesic activity in Swiss albino mouse at 5 to 20 mg/kg administered intramuscularly by mouse tail-flick test; format: functional, organism-based
Mus musculus [4] = experiment: Inhibition of morphine sulfate-induced analgesic activity in Swiss albino mouse at 20 mg/kg administered intramuscularly measured 8 hrs post morphine sulfate challenge by mouse tail-flick test; format: functional; details: route intramuscular
Mus musculus [5] = experiment: Analgesic activity in Swiss albino mouse at 20 mg/kg, sc by mouse tail-flick test; format: functional, organism-based; set-up: dose 20 mg/kg
Mus musculus [6] = experiment: Inhibition of morphine sulfate-induced analgesic activity in Swiss albino mouse at 20 mg/kg, sc measured 24 hrs post morphine sulfate challenge by mouse tail-flick test; format: functional; details: route subcutaneous
Mus musculus [7] = experiment: Inhibition of morphine sulfate-induced analgesic activity in Swiss albino mouse at 20 mg/kg, sc measured 48 hrs post morphine sulfate challenge by mouse tail-flick test relative to naloxone hydrochloride; format: functional, organism-based; set-up: dose 20 mg/kg
Mus musculus [8] = experiment: Inhibition of morphine sulfate-induced analgesic activity in sc dosed Swiss albino mouse measured 30 mins post morphine sulfate challenge by mouse tail-flick test; format: functional

Structure (SMILES) | Activity (Mus musculus [1]) | solubility [2] | Activity (Mus musculus [3]) | Imax (Mus musculus [4]) | Activity (Mus musculus [5]) | Imax (Mus musculus [6]) | inhibition (Mus musculus [7]) | AD50 (Mus musculus [8])
CN(C)C(=[NH2+])Cc1ccccc1.CN(C)C1=NC2c3ccccc3C(=[N+]([O-])[O-])C(C1c1ccccc1)C2[N+](=O)[O-] (centres undefined) | inactive | Insoluble | inactive | – | – | – | – | –
CN(C)C(=[NH2+])Cc1ccccc1.CN(C)C1=NC2C(=[N+]([O-])[O-])c3ccc([N+](=O)[O-])cc3C(C1c1ccccc1)C2[N+](=O)[O-] (centres undefined) | – | Insoluble | inactive | 50% | – | – | – | –
CN(C)C(=[NH2+])Cc1ccccc1.CN(C)C1=NC2C(=[N+]([O-])[O-])c3c(cccc3[N+](=O)[O-])C(C1c1ccccc1)C2[N+](=O)[O-] (centres undefined) | – | Insoluble | – | – | inactive | 50% | Active | –
C[C@@H]1C2Cc3ccc([N+](=O)[O-])cc3[C@@]1(C)CCN2CC1CC1 | – | – | – | – | – | – | – | 9.6 mg/kg
CN(C)C(=[NH2+])Cc1ccccc1.CN(C)C1=NC2c3cc([N+](=O)[O-])ccc3C(=[N+]([O-])[O-])C(C1c1ccccc1)C2[N+](=O)[O-] (centres undefined) | inactive | Insoluble | inactive | – | – | – | – | –
